According to EP4389746A2, “P2X3 RECEPTOR ANTAGONISTS” (Recordati Industria Chimica E Farmaceutica SPA, priority 2022, dated 2024):

Columns and labels:
[1] = target: T1, human P2X3 receptor (Homo sapiens, UniProt P56373); assay: Calcium luminescence measurement: human P2X3 receptor activity inhibition (CHO-K1 cells, photoprotein readout, FLEXSTATION); format: cell-based; conditions: CHO-K1 cells co-expressing human P2X3 and Ca2+ sensitive photoprotein; agonist α,β-Met-ATP; read-out: h-P2X3 IC50
T1 construct: expressed in transfected cells; host or cells: CHO-K1
T1 sequence (P56373 1-397): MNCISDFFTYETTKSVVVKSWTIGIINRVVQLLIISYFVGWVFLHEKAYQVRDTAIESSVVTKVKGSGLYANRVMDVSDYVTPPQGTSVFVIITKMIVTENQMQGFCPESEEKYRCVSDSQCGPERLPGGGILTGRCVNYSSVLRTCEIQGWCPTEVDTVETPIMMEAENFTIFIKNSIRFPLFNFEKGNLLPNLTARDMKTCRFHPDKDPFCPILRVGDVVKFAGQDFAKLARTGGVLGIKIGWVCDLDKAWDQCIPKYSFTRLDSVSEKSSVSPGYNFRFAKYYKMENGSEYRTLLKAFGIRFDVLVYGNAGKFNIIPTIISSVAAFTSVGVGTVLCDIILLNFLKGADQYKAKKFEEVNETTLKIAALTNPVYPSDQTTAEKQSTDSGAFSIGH
Method: Determination of human P2X3 receptor activity inhibition
The assay for the human purinergic P2RX3 receptor has been adapted to the internal screening instrumentation using the FLEXSTATION as reader and a photoprotein as luminescent readout. The assay consists of CHO-K1 cells recombinantly co-expressing the human P2rx3 receptor and a Ca^2+ sensitive photoprotein. Cells are maintained in DMEM F-12 (1:1) mixture (LONZA cat. n° BE04-687F/U1) supplemented with 9 mL of 100 mM Sodium Pyruvate (LONZA cat. n° BE13-115E), 29 mL of 7.5% Sodium Bicarbonate (LONZA cat. n° BE17-613E), 5.5 mL of 1 M Hepes (LONZA cat. n° BE17-737E), 5 mL of 100X Penicillin/Streptomycin mixture (LONZA cat. n° DE17-602E) and 50 mL of Fetal Bovine Serum (Sigma cat. n° F7524), 1 mg/mL G418 disulfate salt (Sigma cat. n° G8168) and 5 µg/ml Puromycin dihydrochloride (Sigma cat. n° P9620). Standard propagation conditions consist of seeding in a P75 flask twice a week, recovering about 20×10^6 cells, corresponding to about 80% confluency. Cells were seeded into black-walled clear bottom 96 well plates at a density of 40000 cells/well in a complete medium. After 24 h the culture medium was replaced with 200 µL/well of coelenterazine in Tyrode's buffer (Standard Tyrode's buffer: in house solution, 130 mM NaCl, 5 mM KCl, 2 mM CaCl2, 5 mM NaHCO3, 1 mM MgCl2, 20 mM HEPES, pH 7.4). Coelenterazine was purchased from BIOSYNTH (cat. n° C-7001). 10 mM stock solution was prepared in DMSO and glutathione and stored at -20° C. The plates were incubated for 4 hours at 37°C, and injected with 10 µL/well of test compounds at 25X concentration in Tyrode's buffer. After 4 minutes a second injection of 50 µL/well of 5X α,β-Met-ATP in Tyrode's buffer (α,β-Met-ATP: from Tocris (cat. n° 3209), was dissolved at 100 mM in water and stored in aliquots at -20°C) was performed and the signal of the emitted luminescence was recorded by FLEXSTATION III (Molecular Devices). […]
The inhibition curves of the tested compounds at cloned P2X3 receptor were determined by nonlinear regression analysis using software Prism 5.0 (Graphpad, San Diego, CA). The IC50 values and pseudo-Hill slope coefficients were estimated by the program.

[2] = target: T2, human P2X2/3 receptor (Homo sapiens, UniProt P56373+Q9UBL9); assay: Calcium fluorescence measurement: human P2X2/3 receptor activity inhibition (CHO-K1 cells, Fluo-8 NoWash, […]); format: cell-based; conditions: for IC50: CHO-K1 cells expressing human P2RX2/X3 channel, 10µM α,β-Met-ATP, read-out: h-P2X2/3 IC50; for Selectivity: ratio of IC50 of P2X2/3/ P2X3 receptors
T2 construct: expressed in transfected cells; host or cells: CHO-K1
T2 sequence (P56373 1-397): T1 sequence (P56373 1-397)
T2 sequence (Q9UBL9 1-471): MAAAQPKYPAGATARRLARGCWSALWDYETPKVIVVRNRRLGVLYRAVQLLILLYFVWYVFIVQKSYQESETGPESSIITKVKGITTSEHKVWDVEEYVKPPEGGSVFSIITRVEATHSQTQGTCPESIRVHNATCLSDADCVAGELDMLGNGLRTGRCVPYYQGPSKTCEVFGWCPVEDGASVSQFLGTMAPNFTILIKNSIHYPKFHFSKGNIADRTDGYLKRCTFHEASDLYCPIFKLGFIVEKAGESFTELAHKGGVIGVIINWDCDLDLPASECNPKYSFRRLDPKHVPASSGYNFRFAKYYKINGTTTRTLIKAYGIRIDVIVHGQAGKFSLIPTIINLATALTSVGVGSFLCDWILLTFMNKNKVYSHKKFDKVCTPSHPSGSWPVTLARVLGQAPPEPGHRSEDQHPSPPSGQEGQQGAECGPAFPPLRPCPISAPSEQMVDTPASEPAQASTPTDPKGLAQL
Method: Determination of human P2X2/3 receptor activity inhibition
The assay for the human P2RX2/X3 has been evaluated by the screening instrumentation using the […] as reader and the FLUO8-NoWash dye as fluorescent readout for calcium detection.
CHO-K1 cells recombinantly expressing the human P2RX2/X3 channel are maintained in DMEM F-12 (1:1) mixture (LONZA cat. n°: BE04-687F/U1) supplemented with 5 mL of 100 mM Sodium Pyruvate (LONZA cat. n° BE13-115E), 25 mL of 7.5% Sodium Bicarbonate (LONZA cat. n° BE17-613E), 6.5 mL of 1M Hepes (LONZA cat. n° BE17-737E), 5 mL of 100X Penicillin/Streptomycin mixture (LONZA cat. n° DE17-602E) and 50 mL of Fetal Bovine Serum (Sigma cat. n° F7524), 5 µg/mL Puromycin dihydrochloride (Sigma cat. n° P9620) and 1 mg/ml G418 disulfate salt (Sigma cat. n° G8168).
Cells were seeded into black-walled clear bottom 384 Multiwell plates at a density of 10.000 cells/well in complete medium. After 24 h the culture medium was replaced with 20 µL/well of Fluo-8 NoWash calcium sensitive dye (AAT Bioquest cat. n° 36316) diluted in Tyrode's buffer (Standard Tyrode's buffer: in house solution, 130 mM NaCl, 5 mM KCl, 2 mM CaCl2, 5 mM NaHCO3, 1 mM MgCl2, 20 mM HEPES, pH 7.4).
The plates were incubated for 1 hours at 37°C and injected with 10 µL/well of test compounds at 3X concentration in Tyrode's buffer with the […]. After 5 minutes a second injection of 15 µL/well of 10µM α,β-Met-ATP in Tyrode's buffer (α,β-Met-ATP: from Tocris cat. n° 3209) was performed and the signal of the emitted fluorescence was recorded by […] (Molecular Devices).
The selectivity is expressed as the ratio of IC50 of P2X2/3/ P2X3 receptors. Table 8: Human P2X3 and h-P2X2/3 receptor antagonist activity for selected compounds of the invention.

Structure (SMILES) | IC50 [1] [nM] | IC50 [2] [nM] | Selectivity [2]
CC(C)C1CN2C(=O)N(Cc3ccc(Cl)cc3)c3cc(N4CCOCC4)cnc3C2=N1 (racemic) [Example 9, 6-[(4-Chlorophenyl)methyl]-8-(morpholin-4-yl)-2-(propan-2-yl)-2,6-dihydroimidazo[1,2-c]pyrido[2,3-e]pyrimidin-5(3H)-one] | 167 | 7410 | 44
COC(C)(C)C1CN2C(=O)N(Cc3ccc(Cl)cc3)c3cc(N4CCOCC4)cnc3C2=N1 (stereo not shown) [Example 5, 6-(4-Chlorobenzyl)-2-(2-methoxypropan-2-yl)-8-(morpholin-4-yl)-2,6-dihydroimidazo[1,2-c]pyrido[2,3-e]pyrimidin-5(3H)-one] | 111 | 19000 | 170
CC(C)C1CN2C(=O)N(CC(=O)Nc3ccc(F)cn3)c3cc(N4CCOCC4)cnc3C2=N1 (stereo not shown) [Example 6, N-(5-Fluoropyridin-2-yl)-2-[8-(morpholin-4-yl)-5-oxo-2-(propan-2-yl)-2,3-dihydroimidazo[1,2-c]pyrido[2,3-e]pyrimidin-6(5H)-yl]acetamide] | 33.5 | 221 | 6.5
CC(C)(CO)C1CN2C(=O)N(Cc3ccc(Cl)cc3)c3cc(N4CCOCC4)nnc3C2=N1 (stereo not shown) [Example 17, 5-[(4-Chlorophenyl)methyl]-9-(1-hydroxy-2-methylpropan-2-yl)-3-(morpholin-4-yl)-8,9-dihydroimidazo[1',2':1,6]pyrimido[5,4-c]pyridazin-6(5H)-one] | 41.5 | > 30000 | >722
COC(C)(C)C1CN2C(=O)N(Cc3ccc(Cl)cc3)c3cc(N4CCOCC4)nnc3C2=N1 (stereo not shown) [Example 18, 5-[(4-Chlorophenyl)methyl]-9-(2-methoxypropan-2-yl)-3-(morpholin-4-yl)-8,9-dihydroimidazo[1',2':1,6]pyrimido[5,4-c]pyridazin-6(5H)-one] | 46.4 | > 30000 | >646
CC(C)(O)C1CN2C(=O)N(Cc3ccc(Cl)cc3)c3cc(N4CCOCC4)nnc3C2=N1 (stereo not shown) [Example 19, 5-[(4-Chlorophenyl)methyl]-9-(2-hydroxypropan-2-yl)-3-(morpholin-4-yl)-8,9-dihydroimidazo[1',2':1,6]pyrimido[5,4-c]pyridazin-6(5H)-one] | 31.2 | > 30000 | >961
COc1ccc(CN2C(=O)N3C(=NC(=O)C3C(C)(C)C)c3ncc(N4CCOCC4)cc32)cc1 (stereo not shown) [Example 20, 3-tert-Butyl-6-[(4-methoxyphenyl)methyl] -8-(morpholin-4-yl)imidazo[1,2-c]pyrido[2,3-e]pyrimidine-2,5(3H,6H)-dione] | 114 | 28500 | 249
CC(C)(C)C1C(=O)N=C2c3ncc(N4CCOCC4)cc3N(Cc3ccc(Cl)cc3)C(=O)N21 (stereo not shown) [Example 21] | 67 | 3430 | 51
CC(C)C1C(=O)N=C2c3ncc(N4CCC(O)CC4)cc3N(Cc3ccc(Cl)cc3)C(=O)N21 (stereo not shown) [Example 26, 6-[(4-Chlorophenyl)methyl]-8-(4-hydroxypiperidin-1-yl)-3-(propan-2-yl)imidazo[1,2-c]pyrido[2,3-e]pyrimidine-2,5(3H,6H)-dione] | 115 | > 30000 | >260
COc1ccc(Cn2c(=O)n3c(C(C)(C)C)nnc3c3ncc(N4CCOCC4)cc32)cc1 [Example 29, 3-tert-Butyl-6-(4-methoxybenzyl)-8-(morpholin-4-yl)pyrido[2,3-e][1,2,4]triazolo[4,3-c]pyrimidin-5(6H)-one] | 34.8 | 19700 | 566
CC(C)(C)c1nnc2c3ncc(N4CCOCC4)cc3n(Cc3ccc(Cl)cc3)c(=O)n12 [Example 30, 3-tert-Butyl-6-[(4-chlorophenyl)methyl]-8-(morpholin-4-yl)pyrido[2,3-e][1,2,4]triazolo[4,3-c]pyrimidin-5(6H)-one] | 64.3 | > 30000 | >466
CC(C)(C)c1nnc2c3ncc(N4CCOCC4)cc3n(Cc3ccc(Br)cc3)c(=O)n12 [Example 31, 6-[(4-Bromophenyl)methyl] -3-tert-butyl-8-(morpholin-4-yl)pyrido[2,3-e][1,2,4]triazolo[4,3-c]pyrimidin-5(6H)-one] | 7.2 | 8150 | >1000
COC(C)(C)c1nnc2c3ncc(N4CCOCC4)cc3n(Cc3ccc(Cl)cc3)c(=O)n12 [Example 32, 6-(4-Chlorobenzyl)-3-(2-methoxypropan-2-yl)-8-(morpholin-4-yl)pyrido[2,3-e][1,2,4]triazolo[4,3-c]pyrimidin-5(6H)-one] | 21 | > 30000 | >1000
COc1ccc(Cn2c(=O)n3c(C(C)(C)C)nnc3c3ncc(N4CCNCC4)cc32)cc1 [Example 35, 3-tert-Butyl-6-[(4-methoxyphenyl)methyl] -8-(piperazin-1-yl)pyrido[2,3-e][1,2,4]triazolo[4,3-c]pyrimidin-5(6H)-one] | 330 | > 30000 | >90
CC(C)(C)Cc1nc2c3nnc(N4CCOCC4)cc3n(Cc3ccc(Cl)cc3)c(=O)n2n1 [Example 54, 5-[(4-Chlorophenyl)methyl]-9-(2,2-dimethylpropyl)-3-(morpholin-4-yl)[1,2,4]triazolo[1',5':1,6]pyrimido[5,4-c]pyridazin-6(5H)-one] | 24.9 |  | 
